Test results reported in patent US12098193B2, “Netrin G1 as a biomarker for enhancing tumor treatment efficacy” (Institute For Cancer Research, priority 2017, dated 2024).
Peptide text beside a SMILES is read from it. * marks the point of attachment. Cbz = O=C(OCc1ccccc1)*; CH2F = FC*

Assays:
Type in all cases: cell-based
[1] = test system: PDAC cells; test: PDAC survival in stressful culture conditions (serum free, glutamine free) with CAFs; details: FIG. 7
Description: Referring to FIG. 7 (panel B), extracellular matrix produced by NetG1 knockout CAFs is less supportive to PDAC survival. Referring to FIG. 7 (panel C), knockout of NetG1 in CAFs produced less glutamate and glutamine. Referring to FIG. 7 (panel D), knockout of NetG1 in CAFs and knockout of NGL1 in PDAC expressed less glutamine/glutamate related proteins.

[2] = test system: PDAC cells; test: NK cell killing assay in 3D (CAF ECM); details: added to NetG1 knockout CAFs; FIG. 11 panel D
Description: Knockout of NetG1 in CAFs reduced immunosuppressive cytokine secretion, and CAFs protected PDAC from NK cell induced death in a NetG1/NGL1-dependent manner. Referring to FIG. 11 (panel A), a panel of immunosuppressive and pro-tumor cytokines (GM-CSF, IL-1Beta, CCL20, IL-6, IL-8, TGF-beta) and NK stimulating cytokine (IL-15) was performed. Knockout of NetG1 in CAFs produced less of all cytokines tested, but still produced significant levels of the anti-tumor NK cell cytokine IL-15. Referring to FIG. 11 (panel B), an assay was performed with Granzyme B and IFN-g production in NK cells stimulated with IL-2+IFN-γ (positive controls) or in co-culture conditions with conditioned media or direct contact with CAFs (CON vs knockout of NetG1). Knockout of NetG1 in CAF media or direct contact partially activated NK cells. Referring to FIG. 11 (panel C), an NK cell killing assay in 3D (CAF ECM) was carried out. Knockout of NetG1 in CAFs allowed NK cells to kill PDAC, while CON CAFs protected PDAC.

[3] = test system: PDAC cells; test: cell death quantification of PDAC (CON or NGL1 knockout) cultured alone or co-cultured with CAFs in 3D under stressful conditions; details: stressful 3D culture (FIG. 9)
Description: NGL1 expression in PDAC determined the mode of cell death under stressful co-culture conditions with CAFs. Referring to FIG. 9 (panel A), cell death quantification of PDAC (CON or knockout) cultured alone in 3D was carried out. Referring to FIG. 9 (panel B), cell death quantification of PDAC (CON or knockout) co-cultured with CAFs (CON or knockout) in 3D was also carried out. […] Also, knockout of NetG1 I CAFs drove PDAC to higher amounts of death across all conditions.

NC(=O)CC[C@H](N)C(=O)O [glutamine]
PDAC survival after adding back to the stressful culture conditions [1]: partially rescued PDAC survival

N[C@@H](CCC(=O)O)C(=O)O [glutamate]
protection of PDAC from NK cell-induced death [2]: partially restored protection | PDAC survival after adding back to the stressful culture conditions [1]: partially rescued PDAC survival

CC(NC(=O)C(NC(=O)OCc1ccccc1)C(C)C)C(=O)NC(CC(=O)O)C(=O)CF (stereo not drawn) [zvad] (Cbz-Val-Ala-Asp-CH2F; configuration not given here)
mode of cell death of NGL1+ PDAC under caspase inhibition ([3]; NGL1+ PDAC): driven to necroptotic death | cell death of NGL- PDAC under caspase inhibition ([3]; NGL1 knockout PDAC): protected from death
